Results as given in patent US12336981B2, “Compounds and compositions for the inhibition of NAMPT” (Valo Health, Inc., priority 2010, dated 2025).
Where two headings read alike, the source gives them in different places.

Key:
[1] = target: T1, NAMPT (Homo sapiens, UniProt P43490); assay: Biochemical inhibition assay: NAMPT enzymatic reaction, NMN quantified by mass spectrometry; settings: read-out: Biochem IC50
T1 construct: His tag; host or cells: E. coli
Outline: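 Inhibition of E. coli-expressed His-tagged human NAMPT, measured as NMN formation by mass spectrometry after a 30 min room-temperature reaction containing 1 μM NAM, 100 μM PRPP and 2.5 mM ATP.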

[2] = system: A2780 cells; assay: In-vitro cell proliferation assay (SRB), A2780 cells; assay type: cell-based; settings: Homo sapiens, A2780, 72 h, A2780 cells, 72 hours, read-out: A2780 IC50
Outline: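 Proliferation is assessed by sulforhodamine B staining following a 72-hour incubation with compound dilutions containing 0.1% DMSO.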

T1 sequence (P43490 whole entry): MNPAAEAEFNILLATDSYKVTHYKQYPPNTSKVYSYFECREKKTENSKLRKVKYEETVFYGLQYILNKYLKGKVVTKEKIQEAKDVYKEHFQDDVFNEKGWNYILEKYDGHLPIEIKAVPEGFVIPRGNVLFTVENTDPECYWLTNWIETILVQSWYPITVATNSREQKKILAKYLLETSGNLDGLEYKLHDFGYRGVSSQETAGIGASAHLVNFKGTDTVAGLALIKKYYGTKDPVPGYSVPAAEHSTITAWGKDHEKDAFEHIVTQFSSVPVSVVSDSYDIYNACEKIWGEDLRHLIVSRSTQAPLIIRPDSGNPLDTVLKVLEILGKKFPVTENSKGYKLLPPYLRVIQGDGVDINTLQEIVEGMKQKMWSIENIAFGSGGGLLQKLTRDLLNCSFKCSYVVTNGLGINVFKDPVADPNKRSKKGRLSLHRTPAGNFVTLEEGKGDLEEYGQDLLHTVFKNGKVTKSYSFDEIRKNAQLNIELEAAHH

Row | SMILES | IC50 ([1]; NAMPT enzymatic assay) [µM] | IC50 ([2]; SRB) [µM] | IC50 ([1]; NAMPT enzymatic reaction) [µM] | IC50 ([2]; SRB assay) [µM]
1 | Cn1ncc2c(S(=O)(=O)c3ccc(CNC(=O)c4cnc5nccn5c4)cc3)cccc21 [N-{[4-(1-methyl-1H-indazole-4-sulfonyl)phenyl]methyl}imidazo[1,2-a]pyrimidine-6-carboxamide] | 0.0042 | 0.0103 |  | 
2 | Cc1ccc(Cl)c(S(=O)(=O)c2ccc(CNC(=O)c3cc4ccncc4o3)cc2)c1F [N-({4-[(6-chloro-2-fluoro-3-methylbenzene)sulfonyl]phenyl}methyl)furo[2,3-c]pyridine-2-carboxamide] | 0.0219 | 0.0293 |  | 
3 | O=C(NCc1ccc(S(=O)(=O)c2cccc3cccnc23)cc1)c1cnc2[nH]ncc2c1 [N-{[4-(quinoline-8-sulfonyl)phenyl]methyl}-1H-pyrazolo[3,4-b]pyridine-5-carboxamide] | 0.0455 | 0.0236 |  | 
4 | O=C(NCc1ccc(S(=O)(=O)c2cccc(-n3cccn3)c2)cc1)c1ccc2nccn2c1 | 0.0048 | 0.0062 |  | 
5 | Cn1ncc2c(S(=O)(=O)c3ccc(CNC(=O)c4cc5ccncc5o4)cc3)cccc21 [N-{[4-(1-methyl-1H-indazole-4-sulfonyl)phenyl]methyl}furo[2,3-c]pyridine-2-carboxamide] | 0.0092 | 0.0036 |  | 
6 | CN(C)CCc1cccc(S(=O)(=O)c2ccc(CNC(=O)c3cnc4nccn4c3)cc2)c1 | 0.0035 | 0.1 to 1 |  | 
7 | CCCOc1cccc(S(=O)(=O)c2ccc(CNC(=O)c3cc4cnccc4[nH]3)cc2)c1 |  | 0.0122 | 0.0102 | 
8 | O=C(NCc1ccc(S(=O)(=O)c2ccc(-c3ccccc3)cc2)cc1)c1cc2cnccc2[nH]1 [N-({4-[(4-phenylbenzene)sulfonyl]phenyl}methyl)-1H-pyrrolo[3,2-c]pyridine-2-carboxamide] |  | 0.0133 | 0.031 | 
9 | CCCOc1cccc(F)c1S(=O)(=O)c1ccc(CNC(=O)c2ccc3nccn3c2)cc1 |  | 0.001 | 0.0914 | 
10 | Cc1ccc(S(=O)(=O)c2ccc(CNC(=O)c3cc4ccncc4s3)cc2)c(Cl)c1 |  | 0.0016 | 0.0249 | 
11 | O=C(NCc1ccc(S(=O)(=O)c2ccc(Cl)c(Cl)c2)cc1)c1cnc2[nH]ncc2c1 [N-({4-[(3,4-dichlorobenzene)sulfonyl]phenyl}methyl)-1H-pyrazolo[3,4-b]pyridine-5-carboxamide] |  | 0.0055 | 0.0067 | 
12 | CC(C)CNC(=O)c1cccc(S(=O)(=O)c2ccc(CNC(=O)c3cc4ccncc4o3)cc2)c1 | 0.0169 | 0.0263 |  | 
13 | Cc1ccc(F)cc1S(=O)(=O)c1ccc(CNC(=O)c2ccc3nccn3c2)cc1 [N-({4-[(5-fluoro-2-methylbenzene)sulfonyl]phenyl}methyl)imidazo[1,2-a]pyridine-6-carboxamide] |  | 0.0229 | 0.0126 | 
14 | O=C(NCc1ccc(S(=O)(=O)c2ccc(F)cc2Cl)cc1)c1cc2ccncc2o1 |  | 0.0634 | 0.0178 | 
15 | O=C(NCc1ccc(S(=O)(=O)c2cccc(OCC(F)(F)F)c2)cc1)c1cc2ccncc2o1 [N-[(4-{[3-(2,2,2-trifluoroethoxy)benzene]sulfonyl}phenyl)methyl]furo[2,3-c]pyridine-2-carboxamide] | 0.0072 | 0.012 |  | 
16 | CC(C)NC(=O)c1cccc(S(=O)(=O)c2ccc(CNC(=O)c3cc4ccncc4o3)cc2)c1 | 0.0151 | 0.0157 |  | 
17 | CC(C)NC(=O)c1cc(S(=O)(=O)c2ccc(CNC(=O)c3cnc4nccn4c3)cc2)ccc1F | 0.0077 | 0.0854 |  | 
18 | Cc1ccc(S(=O)(=O)c2ccc(CNC(=O)c3cc4ccncc4s3)cc2)c(F)c1 [N-({4-[(2-fluoro-4-methylbenzene)sulfonyl]phenyl}methyl)thieno[2,3-c]pyridine-2-carboxamide] |  |  | 0.008 | 0.0207
19 | O=C(NCc1ccc(S(=O)(=O)c2cccc3c2OCO3)cc1)c1cnc2[nH]ncc2c1 [N-{[4-(2H-1,3-benzodioxole-4-sulfonyl)phenyl]methyl}-1H-pyrazolo[3,4-b]pyridine-5-carboxamide] | 0.047 | 0.0884 |  | 
20 | O=C(NCc1ccc(S(=O)(=O)c2ccccc2)cc1)c1c[nH]c2ccncc12 [N-{[4-(benzenesulfonyl)phenyl]methyl}-1H-pyrrolo[3,2-c]pyridine-3-carboxamide] | 1.91 | 2.06 |  | 
21 | COc1ccc(S(=O)(=O)c2ccc(CNC(=O)c3cc4cnccc4[nH]3)cc2)c(OC)c1 [N-({4-[(2,4-dimethoxybenzene)sulfonyl]phenyl}methyl)-1H-pyrrolo[3,2-c]pyridine-2-carboxamide] | 0.027 | 0.007 |  | 
22 | COCc1cccc(S(=O)(=O)c2ccc(CNC(=O)c3cc4cnccc4[nH]3)cc2)c1 [N-[(4-{[3-(methoxymethyl)benzene]sulfonyl}phenyl)methyl]-1H-pyrrolo[3,2-c]pyridine-2-carboxamide] | 0.0202 | 0.0128 |  | 
23 | NS(=O)(=O)c1cccc(S(=O)(=O)c2ccc(CNC(=O)c3cc4ccncc4s3)cc2)c1 |  | 0.0121 | 0.002 | 
24 | CCOc1ccc(S(=O)(=O)c2ccc(CNC(=O)c3cnc4nccn4c3)cc2)cc1F |  | 0.0031 | 0.0009 | 

Row | SMILES | IC50 ([1]; NAMPT enzymatic assay) [µM] | IC50 ([2]; SRB) [µM] | IC50 ([1]; NAMPT enzymatic reaction) [µM] | IC50 ([2]; SRB assay) [µM]
25 | Cc1cc(Cl)ccc1S(=O)(=O)c1ccc(CNC(=O)c2cc3ccncc3o2)cc1 [N-({4-[(4-chloro-2-methylbenzene)sulfonyl]phenyl}methyl)furo[2,3-c]pyridine-2-carboxamide] |  | 0.0647 | 0.0249 | 
26 | CCOc1cccc(S(=O)(=O)c2ccc(CNC(=O)c3cc4ccncc4o3)cc2)c1F |  | 0.0227 | 0.0175 | 
27 | COc1ccc(S(=O)(=O)c2ccc(CNC(=O)c3cc4ccncc4o3)cc2)cc1F |  | 0.0068 | 0.0022 | 
28 | O=C(NCc1ccc(S(=O)(=O)c2ccccc2OC(F)(F)F)cc1)c1cc2ccncc2o1 | 0.0086 | 0.0146 |  | 
29 | Cc1ccccc1S(=O)(=O)c1ccc(CNC(=O)c2cnc3[nH]ncc3c2)cc1 [N-({4-[(2-methylbenzene)sulfonyl]phenyl}methyl)-1H-pyrazolo[3,4-b]pyridine-5-carboxamide] |  | 0.1 to 1 | 0.0926 | 
30 | O=C(NCc1ccc(S(=O)(=O)c2cc(F)cc(N3CCCC3)c2)cc1)c1cc2ccncc2s1 | 0.0012 | 0.0027 |  | 
31 | COc1ccccc1NS(=O)(=O)c1ccc(CNC(=O)c2cc3cnccc3[nH]2)cc1 [N-({4-[(2-methoxyphenyl)sulfamoyl]phenyl}methyl)-1H-pyrrolo[3,2-c]pyridine-2-carboxamide] |  |  | 0.089 | 2.15
32 | CC(C)COc1ccc(S(=O)(=O)c2ccc(CNC(=O)c3cc4cnccc4[nH]3)cc2)cc1 | 0.0127 | 0.0094 |  | 
33 | Nc1ccc(C(=O)NCc2ccc(S(=O)(=O)c3cc(F)cc(F)c3)cc2)cn1 [6-amino-N-({4-[(3,5-difluorobenzene)sulfonyl]phenyl}methyl)pyridine-3-carboxamide] |  | 0.275 | 0.0142 | 
34 | Cc1cc(C(F)(F)F)ccc1S(=O)(=O)c1ccc(CNC(=O)c2ccc3nccn3c2)cc1 | 0.0247 | 0.0166 |  | 
35 | CCCOc1ccc(S(=O)(=O)c2ccc(CNC(=O)c3cc4ccncc4s3)cc2)c(C)c1 [N-({4-[(2-methyl-4-propoxybenzene)sulfonyl]phenyl}methyl)thieno[2,3-c]pyridine-2-carboxamide] |  | 0.0017 | 0.0129 | 
36 | O=C(NCc1ccc(S(=O)(=O)c2cccc(N3CCOCC3)c2)cc1)c1cc2cc(O)ccc2[nH]1 |  | 1 to 10 | 0.1 to 1 | 
37 | CCOc1ccc(Cl)cc1S(=O)(=O)c1ccc(CNC(=O)c2ccc3nccn3c2)cc1 |  | 0.0005 | 0.0022 | 
38 | Cn1ncc2ccc(S(=O)(=O)c3ccc(CNC(=O)c4cnc5[nH]ncc5c4)cc3)cc21 [N-{[4-(1-methyl-1H-indazole-6-sulfonyl)phenyl]methyl}-1H-pyrazolo[3,4-b]pyridine-5-carboxamide] | 0.004 | 0.003 |  | 
39 | Cc1csc(S(=O)(=O)c2ccc(CNC(=O)c3ccc4nccn4c3)cc2)c1 [N-{[4-(4-methylthiophene-2-sulfonyl)phenyl]methyl}imidazo[1,2-a]pyridine-6-carboxamide] | 0.0124 | 0.0125 |  | 
40 | Cn1ncc2ccc(S(=O)(=O)c3ccc(CNC(=O)c4ccc5nccn5c4)cc3)cc21 [N-{[4-(1-methyl-1H-indazole-6-sulfonyl)phenyl]methyl}imidazo[1,2-a]pyridine-6-carboxamide] | 0.005 | 0.0039 |  | 
41 | O=C(NCc1ccc(S(=O)(=O)c2ccc(-n3cccn3)cc2F)cc1)c1ccc2nccn2c1 [N-[(4-{[2-fluoro-4-(1H-pyrazol-1-yl)benzene]sulfonyl}phenyl)methyl]imidazo[1,2-a]pyridine-6-carboxamide] | 0.00844 | 0.0128 |  | 
42 | CN1CCN(c2ccc(S(=O)(=O)c3ccc(CNC(=O)c4cc5cnccc5[nH]4)cc3)cc2)CC1 | 0.003 | 0.0008 |  | 
43 | COc1ccc(C(C)=O)cc1S(=O)(=O)c1ccc(CNC(=O)c2cnc3nccn3c2)cc1 |  | 0.0548 | 0.0172 | 
44 | CCCOc1ccc(S(=O)(=O)c2ccc(CNC(=O)c3cc4ccncc4o3)cc2)cc1 |  | 0.012 | 0.0495 | 
45 | CCc1cccc(S(=O)(=O)c2ccc(CNC(=O)c3cnc4[nH]ncc4c3)cc2)c1 |  | 0.0071 | 0.007 | 
46 | COc1c(C)cc(S(=O)(=O)c2ccc(CNC(=O)c3cnc4nccn4c3)cc2)cc1C |  | 0.0013 | 0.0027 | 
47 | O=C(NCc1ccc(S(=O)(=O)c2cnc3ccc(Cl)cn23)cc1)c1cc2ccncc2o1 [N-[(4-{6-chloroimidazo[1,2-a]pyridine-3-sulfonyl}phenyl)methyl]furo[2,3-c]pyridine-2-carboxamide] | 0.0012 | 0.0004 |  | 
